Here are results for one compound from ChEMBL document CHEMBL1201862, “PubChem BioAssay data set” (2004).

Assay type in all cases: functional
Assay [1] deals with Testis-specific serine/threonine-protein kinase 1 (Homo sapiens, UniProt Q9BXA7).
Assay [2] deals with Rho-associated protein kinase 1 (Homo sapiens, UniProt Q13464).
In assay [3] the target is Casein kinase II subunit alpha (Homo sapiens, UniProt P68400).
The target in assay [4] is Insulin-like growth factor 1 receptor (Homo sapiens, UniProt P08069). The assay is described as follows: Navigating the Kinome. Panel member name: IGF1R.
The target of assay [5] is Serine/threonine-protein kinase PLK4 (Homo sapiens, UniProt O00444).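 Further: PLK4 measured as one member of a kinome-wide kinase profiling panel.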
Assay [6] has as its target Serine/threonine-protein kinase DCLK1 (Homo sapiens, UniProt O15075).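 Further: affinity for DCLK1 (listed as DCAMKL1) measured as one member of a kinome-wide kinase profiling panel.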
Assay [7] deals with 5'-AMP-activated protein kinase catalytic subunit alpha-1 (Homo sapiens, UniProt Q13131).
The next assay deals with Aurora kinase B (Homo sapiens, UniProt Q96GD4).
Assay [8] addresses Calcium/calmodulin-dependent protein kinase type II subunit gamma (Homo sapiens, UniProt Q13555).
The target of assay [9] is Macrophage colony-stimulating factor 1 receptor (Homo sapiens, UniProt P07333).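 Further: value comes from the Navigating the Kinome screening panel, CSF1R member.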
Assay [10] concerns the target Cyclin-dependent kinase 1 (Homo sapiens, UniProt P06493).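 Further: Kinome-wide panel profiling, with the target listed as panel member CDC2.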
For assay [11], the target named is Tyrosine-protein kinase FRK (Homo sapiens, UniProt P42685).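 Further: FRK tested as one member of a kinome panel.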
For assay [12], the target named is MAP/microtubule affinity-regulating kinase 3 (Homo sapiens, UniProt P27448).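 Further: MARK3 affinity measured as one member of a kinome panel.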
Assay [13] has as its target Protein-tyrosine kinase 6 (Homo sapiens, UniProt Q13882).
In assay [14] the target is Serine/threonine-protein kinase D3 (Homo sapiens, UniProt O94806).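 Further: determined within a kinase panel screen, with PRKCN as the panel member.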
The target of assay [15] is Serine/threonine-protein kinase pim-3 (Homo sapiens, UniProt Q86V86).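 Further: value obtained as one member of a broad kinase panel profiling effort.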
The target in assay [16] is cAMP-dependent protein kinase catalytic subunit alpha (Homo sapiens, UniProt P17612).
The target in assay [17] is Serine/threonine-protein kinase Chk1 (Homo sapiens, UniProt O14757).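 Further: measured as one member of a kinome-wide kinase profiling panel.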
In assay [18] the target is Dual specificity protein kinase CLK2 (Homo sapiens, UniProt P49760).

Activity calls are given as the source filed them. Some results are limits rather than exact numbers.

Serine/threonine-protein kinase D3, sequence (O94806 whole entry): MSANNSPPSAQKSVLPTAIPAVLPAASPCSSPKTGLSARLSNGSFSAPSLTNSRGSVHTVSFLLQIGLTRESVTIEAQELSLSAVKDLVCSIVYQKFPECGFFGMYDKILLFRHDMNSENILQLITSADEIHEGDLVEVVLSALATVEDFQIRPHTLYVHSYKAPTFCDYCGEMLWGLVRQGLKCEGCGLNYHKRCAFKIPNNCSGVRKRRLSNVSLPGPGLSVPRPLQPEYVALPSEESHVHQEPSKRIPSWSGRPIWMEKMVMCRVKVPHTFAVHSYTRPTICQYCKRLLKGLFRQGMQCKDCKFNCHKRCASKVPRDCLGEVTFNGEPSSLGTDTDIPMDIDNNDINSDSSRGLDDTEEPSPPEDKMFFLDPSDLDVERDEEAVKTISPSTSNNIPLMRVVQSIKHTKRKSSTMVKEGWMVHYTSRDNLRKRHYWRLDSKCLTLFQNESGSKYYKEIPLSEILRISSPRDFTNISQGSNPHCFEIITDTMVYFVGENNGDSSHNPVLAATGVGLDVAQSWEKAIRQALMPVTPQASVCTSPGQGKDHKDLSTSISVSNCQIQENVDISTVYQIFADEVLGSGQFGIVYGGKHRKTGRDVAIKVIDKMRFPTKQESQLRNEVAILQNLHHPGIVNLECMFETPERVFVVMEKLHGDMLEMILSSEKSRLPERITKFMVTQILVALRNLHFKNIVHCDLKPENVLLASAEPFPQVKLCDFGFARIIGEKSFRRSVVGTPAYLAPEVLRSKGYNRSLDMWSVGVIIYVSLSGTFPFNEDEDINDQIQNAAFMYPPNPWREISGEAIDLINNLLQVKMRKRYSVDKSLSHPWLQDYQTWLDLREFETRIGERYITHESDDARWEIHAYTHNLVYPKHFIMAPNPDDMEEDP
Tyrosine-protein kinase FRK, sequence (P42685 whole entry): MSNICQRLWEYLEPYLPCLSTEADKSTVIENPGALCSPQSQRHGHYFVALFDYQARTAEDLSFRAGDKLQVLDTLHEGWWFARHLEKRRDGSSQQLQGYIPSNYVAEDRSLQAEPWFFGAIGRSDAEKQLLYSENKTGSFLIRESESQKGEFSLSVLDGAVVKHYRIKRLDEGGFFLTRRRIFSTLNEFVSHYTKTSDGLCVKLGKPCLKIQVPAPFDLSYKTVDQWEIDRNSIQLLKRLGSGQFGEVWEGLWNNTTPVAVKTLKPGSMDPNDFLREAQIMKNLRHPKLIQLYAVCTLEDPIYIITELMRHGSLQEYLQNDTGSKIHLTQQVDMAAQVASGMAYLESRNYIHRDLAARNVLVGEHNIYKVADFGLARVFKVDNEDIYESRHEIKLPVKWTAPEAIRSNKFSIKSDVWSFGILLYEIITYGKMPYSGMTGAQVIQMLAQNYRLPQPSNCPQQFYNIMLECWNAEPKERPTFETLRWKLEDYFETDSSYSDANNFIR
Aurora kinase B, sequence (Q96GD4 whole entry): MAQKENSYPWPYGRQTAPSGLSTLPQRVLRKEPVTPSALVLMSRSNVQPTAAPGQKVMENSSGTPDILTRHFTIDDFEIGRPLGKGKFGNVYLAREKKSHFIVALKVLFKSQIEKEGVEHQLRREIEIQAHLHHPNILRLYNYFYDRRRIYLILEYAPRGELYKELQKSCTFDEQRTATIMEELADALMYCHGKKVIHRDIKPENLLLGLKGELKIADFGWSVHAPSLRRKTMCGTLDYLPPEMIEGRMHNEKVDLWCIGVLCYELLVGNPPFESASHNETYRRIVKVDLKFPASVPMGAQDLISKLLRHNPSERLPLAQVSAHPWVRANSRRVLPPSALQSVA
Casein kinase II subunit alpha, sequence (P68400 whole entry): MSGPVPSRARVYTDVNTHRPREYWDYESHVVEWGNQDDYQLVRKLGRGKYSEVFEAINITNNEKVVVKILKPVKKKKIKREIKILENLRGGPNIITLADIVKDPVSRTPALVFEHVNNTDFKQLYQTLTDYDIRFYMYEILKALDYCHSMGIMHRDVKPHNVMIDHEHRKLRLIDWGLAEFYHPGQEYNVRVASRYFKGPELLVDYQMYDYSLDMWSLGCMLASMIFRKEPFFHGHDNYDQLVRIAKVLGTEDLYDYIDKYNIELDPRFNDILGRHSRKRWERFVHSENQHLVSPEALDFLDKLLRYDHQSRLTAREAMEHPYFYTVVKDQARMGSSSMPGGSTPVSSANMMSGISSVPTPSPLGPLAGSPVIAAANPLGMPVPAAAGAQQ
Serine/threonine-protein kinase DCLK1, sequence (O15075 whole entry): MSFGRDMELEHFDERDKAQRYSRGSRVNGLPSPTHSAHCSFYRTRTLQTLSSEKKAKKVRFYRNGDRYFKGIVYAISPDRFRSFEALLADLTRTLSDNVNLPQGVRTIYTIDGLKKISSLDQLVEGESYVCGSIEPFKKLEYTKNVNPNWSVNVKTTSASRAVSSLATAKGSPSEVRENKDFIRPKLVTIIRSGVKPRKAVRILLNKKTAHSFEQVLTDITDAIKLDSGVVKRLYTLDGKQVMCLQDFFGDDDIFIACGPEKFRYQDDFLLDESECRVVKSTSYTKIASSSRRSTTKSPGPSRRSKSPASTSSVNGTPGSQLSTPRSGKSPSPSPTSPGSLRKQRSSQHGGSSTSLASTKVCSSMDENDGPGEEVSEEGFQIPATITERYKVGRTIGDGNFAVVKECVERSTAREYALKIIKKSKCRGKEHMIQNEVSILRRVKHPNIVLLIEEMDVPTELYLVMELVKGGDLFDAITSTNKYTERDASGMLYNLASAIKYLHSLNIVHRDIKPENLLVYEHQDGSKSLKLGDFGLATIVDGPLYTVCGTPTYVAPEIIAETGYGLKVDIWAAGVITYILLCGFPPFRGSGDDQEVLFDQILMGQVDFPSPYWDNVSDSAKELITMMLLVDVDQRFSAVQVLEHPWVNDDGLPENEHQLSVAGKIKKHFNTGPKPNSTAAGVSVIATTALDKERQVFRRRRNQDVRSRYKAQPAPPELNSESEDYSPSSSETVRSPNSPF
Dual specificity protein kinase CLK2, sequence (P49760 whole entry): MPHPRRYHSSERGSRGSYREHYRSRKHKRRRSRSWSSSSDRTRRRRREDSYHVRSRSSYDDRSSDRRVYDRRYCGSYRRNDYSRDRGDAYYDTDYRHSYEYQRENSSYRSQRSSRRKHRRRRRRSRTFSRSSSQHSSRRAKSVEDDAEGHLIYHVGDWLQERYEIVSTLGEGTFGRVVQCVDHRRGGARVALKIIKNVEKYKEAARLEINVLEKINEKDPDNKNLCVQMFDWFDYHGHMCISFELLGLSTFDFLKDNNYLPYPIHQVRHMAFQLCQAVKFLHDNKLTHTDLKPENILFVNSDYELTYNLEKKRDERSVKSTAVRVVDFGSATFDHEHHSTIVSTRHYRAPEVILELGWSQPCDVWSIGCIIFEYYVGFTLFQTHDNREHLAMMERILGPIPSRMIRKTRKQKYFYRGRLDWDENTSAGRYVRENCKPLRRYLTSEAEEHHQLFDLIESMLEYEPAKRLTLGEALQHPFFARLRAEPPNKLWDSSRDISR
Calcium/calmodulin-dependent protein kinase type II subunit gamma, sequence (Q13555 whole entry): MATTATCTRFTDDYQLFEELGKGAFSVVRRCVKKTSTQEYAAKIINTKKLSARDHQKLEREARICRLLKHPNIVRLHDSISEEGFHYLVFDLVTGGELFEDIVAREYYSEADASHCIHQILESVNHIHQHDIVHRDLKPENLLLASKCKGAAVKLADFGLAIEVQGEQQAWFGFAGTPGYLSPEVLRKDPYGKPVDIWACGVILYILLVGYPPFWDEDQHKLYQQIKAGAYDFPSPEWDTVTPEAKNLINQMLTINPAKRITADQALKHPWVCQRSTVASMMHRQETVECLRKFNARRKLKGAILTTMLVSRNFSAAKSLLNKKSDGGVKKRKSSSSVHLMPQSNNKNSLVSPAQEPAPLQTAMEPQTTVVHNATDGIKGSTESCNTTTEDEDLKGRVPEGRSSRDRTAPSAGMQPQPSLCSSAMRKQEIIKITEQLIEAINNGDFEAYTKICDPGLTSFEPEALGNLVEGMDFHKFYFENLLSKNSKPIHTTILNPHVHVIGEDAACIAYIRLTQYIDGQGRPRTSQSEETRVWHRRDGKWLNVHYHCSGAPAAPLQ
5'-AMP-activated protein kinase catalytic subunit alpha-1, sequence (Q13131 whole entry): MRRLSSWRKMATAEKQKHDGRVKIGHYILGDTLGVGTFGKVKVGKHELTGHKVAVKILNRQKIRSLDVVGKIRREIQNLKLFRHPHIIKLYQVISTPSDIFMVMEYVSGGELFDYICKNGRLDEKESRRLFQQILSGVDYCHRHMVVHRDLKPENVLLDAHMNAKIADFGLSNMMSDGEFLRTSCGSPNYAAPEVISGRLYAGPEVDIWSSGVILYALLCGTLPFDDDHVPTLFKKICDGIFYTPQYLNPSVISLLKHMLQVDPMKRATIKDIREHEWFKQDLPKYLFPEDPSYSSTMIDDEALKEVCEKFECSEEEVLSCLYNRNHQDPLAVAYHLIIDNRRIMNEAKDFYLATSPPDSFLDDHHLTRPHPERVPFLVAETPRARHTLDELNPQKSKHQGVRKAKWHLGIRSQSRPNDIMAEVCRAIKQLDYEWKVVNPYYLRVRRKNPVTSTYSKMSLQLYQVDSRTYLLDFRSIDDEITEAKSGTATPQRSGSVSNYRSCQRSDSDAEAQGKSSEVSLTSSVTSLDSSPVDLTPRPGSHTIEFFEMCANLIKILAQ

The Ki is the dissociation constant of the complex between target and ligand, obtained from inhibition or displacement. Turning to `NC1CCCCC1Nc1nccc(-c2c[nH]c3ncccc23)n1` (centres undefined), the Ki in assay [1] was 15.8 nM (active); in [2] it was 5.01 nM (active); in assay [3] it was > 6.31 µM (inactive); in assay [4], > 2 µM (inactive); in assay [5], 3.16 µM (active); in assay [6], 3.16 µM (active). The Ki in [7] is 794 nM (active); at Aurora kinase B it was 1.26 µM (active); in [8], 79.4 nM (active); in assay [9], > 2.51 µM (inactive); in assay [10], 158 nM (active); in assay [11], 1.58 µM (active). The inhibition constant (Ki) in assay [12] was 158 nM (active); in assay [13] it was > 2.51 µM (inactive); in assay [14] it was 79.4 nM (active); in assay [15] it was 501 nM (active); in assay [16] it was 25.1 nM (active); in [17], 1.26 µM (active). For the same compound, in assay [18], the Ki is 39.8 nM (active).
